# Source: patent US12668576B2, “Pyrazolamide derivative, preparation method therefor, and application thereof” (SHENZHEN ZHONGGE BIOLOGICAL TECHNOLOGY CO., LTD., priority 2021, dated 2026)
# Molecular target: T1, EP4 receptor (Homo sapiens, UniProt P35408)
# T1 construct: expressed in transfected cells; host or cells: Flp-In CHO cells (Flpin-CHO-EP4)
# Assay: Antagonist activity against EP4 receptor by cAMP assay
# Type: cell-based
# Conditions: Flpin-CHO-EP4 cells, PGE2 stimulation, cAMP readout; starting concentration 5 μM, dilution factor 4
# Method: Eu-CAMP tracer (1/50) was diluted with a lysis buffer and 10 μL was added to per well of the detection plate. Ulight-anti-CAMP (1/150) was diluted with the lysis buffer and 10 μL was added to per well of the detection plate, and incubated at room temperature for 1 h.
# T1 sequence (P35408 whole entry): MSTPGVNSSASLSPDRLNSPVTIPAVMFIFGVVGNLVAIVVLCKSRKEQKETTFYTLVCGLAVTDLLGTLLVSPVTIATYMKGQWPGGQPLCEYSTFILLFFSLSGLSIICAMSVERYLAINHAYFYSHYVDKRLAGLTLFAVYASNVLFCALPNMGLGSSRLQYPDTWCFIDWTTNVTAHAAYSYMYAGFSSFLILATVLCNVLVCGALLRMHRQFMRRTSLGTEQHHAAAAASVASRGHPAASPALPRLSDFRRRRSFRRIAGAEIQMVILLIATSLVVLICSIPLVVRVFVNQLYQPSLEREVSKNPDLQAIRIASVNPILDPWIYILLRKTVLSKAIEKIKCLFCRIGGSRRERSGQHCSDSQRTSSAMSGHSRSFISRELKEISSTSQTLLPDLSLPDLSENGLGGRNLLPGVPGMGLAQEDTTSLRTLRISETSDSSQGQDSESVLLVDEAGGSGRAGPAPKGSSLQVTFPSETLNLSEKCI
structure (smiles),measurement,value
"C[C@H](NC(=O)c1c(C(F)F)nn(C)c1Oc1cccc(S(F)(F)(F)(F)F)c1)c1ccc(C(=O)O)cc1 [Example 1, 4-(1-(3-(difluoromethyl)-1-methyl-5-(3-(pentafluorothio)phenoxy)-1H-pyrazole-4-carboxamido)ethyl)benzoic acid]",IC50,6.59 nM
